From patent US11078202B2, “β-lactamase inhibitor and use thereof” (priority 2018, dated 2021)
Counter-ions that a name gives are not always drawn.

Tests used:
Assay type in all cases: cell-based
[1] = tested on: Klebsiella pneumoniae XNWB 0006; assay: MIC assay of test compounds combined with ceftazidime (8 μg/mL); details: ceftazidime 8 μg/mL fixed
Summary of the method: (§1)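 Antibiotic potentiation test: compound serially diluted, partner β-lactam at constant concentration, CAMHB medium, saline-standardised inoculum (OD600 0.1-0.15) diluted 300-fold. Incubated 16-20 h at 35±2 °C.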

[2] = tested on: Klebsiella pneumoniae XNWB 0002; assay: as above; details: ceftazidime 8 μg/mL fixed
Summary of the method: as §1

[3] = tested on: Klebsiella pneumoniae XNWB 0001; assay: as above; details: ceftazidime 8 μg/mL fixed
Summary of the method: as §1

[4] = tested on: Klebsiella pneumoniae XNWB 0003; assay: as above; details: ceftazidime 8 μg/mL fixed
Summary of the method: as §1

[5] = tested on: Acinetobacter baumannii XNWB 0007; assay: as above; details: ceftazidime 8 μg/mL fixed
Summary of the method: as §1

[6] = tested on: Klebsiella pneumoniae XNWB 0004; assay: as above; details: ceftazidime 8 μg/mL fixed
Summary of the method: as §1

[7] = tested on: Klebsiella pneumoniae XNWB 0005; assay: as above; details: ceftazidime 8 μg/mL fixed
Summary of the method: as §1

[8] = tested on: Pseudomonas aeruginosa XNWB 0008; assay: as above; details: ceftazidime 8 μg/mL fixed
Summary of the method: as §1

[9] = tested on: Klebsiella pneumoniae XNWB 0006; assay: MIC assay of test compounds combined with imipenem (4 μg/mL); details: imipenem 4 μg/mL fixed
Summary of the method: as §1

[10] = tested on: Klebsiella pneumoniae XNWB 0002; assay: as above; details: imipenem 4 μg/mL fixed
Summary of the method: as §1

[11] = tested on: Klebsiella pneumoniae XNWB 0001; assay: as above; details: imipenem 4 μg/mL fixed
Summary of the method: as §1

[12] = tested on: Klebsiella pneumoniae XNWB 0003; assay: as above; details: imipenem 4 μg/mL fixed
Summary of the method: as §1

[13] = tested on: Acinetobacter baumannii XNWB 0007; assay: as above; details: imipenem 4 μg/mL fixed
Summary of the method: as §1

[14] = tested on: Klebsiella pneumoniae XNWB 0004; assay: as above; details: imipenem 4 μg/mL fixed
Summary of the method: as §1

[15] = tested on: Klebsiella pneumoniae XNWB 0005; assay: as above; details: imipenem 4 μg/mL fixed
Summary of the method: as §1

[16] = tested on: Pseudomonas aeruginosa XNWB 0008; assay: as above; details: imipenem 4 μg/mL fixed
Summary of the method: as §1

Structure (SMILES)	The minimum concentration of test compounds combined with ceftazidime (8 μg/mL) for bacteriostasis [1]	The minimum concentration of test compounds combined with ceftazidime (8 μg/mL) for bacteriostasis [2]	The minimum concentration of test compounds combined with ceftazidime (8 μg/mL) for bacteriostasis [3]	The minimum concentration of test compounds combined with ceftazidime (8 μg/mL) for bacteriostasis [4]	The minimum concentration of test compounds combined with ceftazidime (8 μg/mL) for bacteriostasis [5]	The minimum concentration of test compounds combined with ceftazidime (8 μg/mL) for bacteriostasis [6]	The minimum concentration of test compounds combined with ceftazidime (8 μg/mL) for bacteriostasis [7]	The minimum concentration of test compounds combined with ceftazidime (8 μg/mL) for bacteriostasis [8]	The minimum concentration of test compounds combined with imipenem (4 μg/mL) for bacteriostasis [9]	The minimum concentration of test compounds combined with imipenem (4 μg/mL) for bacteriostasis [10]	The minimum concentration of test compounds combined with imipenem (4 μg/mL) for bacteriostasis [11]	The minimum concentration of test compounds combined with imipenem (4 μg/mL) for bacteriostasis [12]	The minimum concentration of test compounds combined with imipenem (4 μg/mL) for bacteriostasis [13]	The minimum concentration of test compounds combined with imipenem (4 μg/mL) for bacteriostasis [14]	The minimum concentration of test compounds combined with imipenem (4 μg/mL) for bacteriostasis [15]	The minimum concentration of test compounds combined with imipenem (4 μg/mL) for bacteriostasis [16]
N=C(N)NC[C@H](O)c1cc([C@@H]2CC3(CC3)[C@@H]3CN2C(=O)N3OS(=O)(=O)O)no1 [Example 39, (1R,4S)-4-(5-((S)-2-guanidyl-1-hydroxyethyl)isoxazol-3-yl)-6-oxo-5,7-diazaspiro [bicyclo[3.2.1]octane-2,1′-cyclopropan]-7-yl sulfate]	A (A: <8 μg/mL)	A (A: <8 μg/mL)	A (A: <8 μg/mL)	A (A: <8 μg/mL)	C (C: 16-128 μg/mL)	A (A: <8 μg/mL)	A (A: <8 μg/mL)	B (B: 8-16 μg/mL)	A (A: <8 μg/mL)	A (A: <8 μg/mL)	A (A: <8 μg/mL)	A (A: <8 μg/mL)	B (B: 8-16 μg/mL)	A (A: <8 μg/mL)	A (A: <8 μg/mL)	A (A: <8 μg/mL)
N[C@H]1CC[C@@H](c2nnc([C@@H]3CC4(CC4)[C@@H]4CN3C(=O)N4OS(=O)(=O)O)o2)C1 [Example 17, (1R,4S)-4-(5-((1R,3S)-3-aminocyclopentyl)-1,3,4-oxadiazol-2-yl)-6-oxo-5,7-diazaspiro [bicyclo[3.2.1]octane-2,1′-cyclopropan]-7-yl sulfate]	A (A: <8 μg/mL)	A (A: <8 μg/mL)	A (A: <8 μg/mL)	A (A: <8 μg/mL)	C (C: 16-128 μg/mL)	A (A: <8 μg/mL)	A (A: <8 μg/mL)	B (B: 8-16 μg/mL)	A (A: <8 μg/mL)	A (A: <8 μg/mL)	A (A: <8 μg/mL)	A (A: <8 μg/mL)	B (B: 8-16 μg/mL)	A (A: <8 μg/mL)	A (A: <8 μg/mL)	A (A: <8 μg/mL)
N=C(N)NCCNCCc1cc([C@@H]2CC3(CC3)[C@@H]3CN2C(=O)N3OS(=O)(=O)O)no1 [Example 53, (1R,4S)-4-(5-(2-((2-guanidinoethyl)amino)ethyl)isoxazol-3-yl)-6-oxo-5,7-diazaspiro [bicyclo[3.2.1]octane-2,1′-cyclopropan]-7-yl sulfate]	A (A: <8 μg/mL)	A (A: <8 μg/mL)	A (A: <8 μg/mL)	A (A: <8 μg/mL)	C (C: 16-128 μg/mL)	B (B: 8-16 μg/mL)	A (A: <8 μg/mL)	B (B: 8-16 μg/mL)	A (A: <8 μg/mL)	A (A: <8 μg/mL)	A (A: <8 μg/mL)	A (A: <8 μg/mL)	C (C: 16-128 μg/mL)	A (A: <8 μg/mL)	A (A: <8 μg/mL)	A (A: <8 μg/mL)
O=C1N2C[C@H](N1OS(=O)(=O)O)C1(CC1)C[C@H]2c1nnc(CC2CNC2)o1 [Example 23, (1R,4S)-4-(5-(azetidin-3-ylmethyl)-1,3,4-oxadiazol-2-yl)-6-oxo-5,7-diazaspiro[bicycle [3.2.1]octane-2,1′-cyclopropan]-7-yl sulfate]	A (A: <8 μg/mL)	A (A: <8 μg/mL)	A (A: <8 μg/mL)	A (A: <8 μg/mL)	C (C: 16-128 μg/mL)	A (A: <8 μg/mL)	A (A: <8 μg/mL)	B (B: 8-16 μg/mL)	A (A: <8 μg/mL)	A (A: <8 μg/mL)	A (A: <8 μg/mL)	A (A: <8 μg/mL)	B (B: 8-16 μg/mL)	A (A: <8 μg/mL)	A (A: <8 μg/mL)	A (A: <8 μg/mL)
NC1CC(c2cc([C@@H]3CC4(CC4)[C@@H]4CN3C(=O)N4OS(=O)(=O)O)no2)C1 (single isomer, unassigned) [Example 52]	A (A: <8 μg/mL)	A (A: <8 μg/mL)	A (A: <8 μg/mL)	B (B: 8-16 μg/mL)	C (C: 16-128 μg/mL)	B (B: 8-16 μg/mL)	B (B: 8-16 μg/mL)	C (C: 16-128 μg/mL)	A (A: <8 μg/mL)	A (A: <8 μg/mL)	A (A: <8 μg/mL)	A (A: <8 μg/mL)	C (C: 16-128 μg/mL)	A (A: <8 μg/mL)	A (A: <8 μg/mL)	A (A: <8 μg/mL)
